Reference: PMC13586173, “Synthetic cannabinoid receptor agonists inhibit the cardiac voltage-gated potassium channel hERG” (Acta Pharmacologica Sinica, 2026)

Legend:
hERG (KV11.1) = hERG (KV11.1) (Homo sapiens, UniProt Q12809); experiment: Automated planar patch-clamp (APC, QPatch II 48), voltage-ladder protocol, CHO cells stably expressing human hERG
[1] = cited from earlier work
hERG WT = target: T1, hERG WT (Homo sapiens, UniProt Q12809); experiment: Manual patch-clamp (MPC) on hERG wild type; assay type: cell-based
T1 construct: expressed in transfected cells
Experimental: Manual patch-clamp (MPC) recordings were performed 24–48 h post-transfection. Patch pipettes were pulled from borosilicate glass and had resistances of 4–7 MΩ when filled with intracellular solution. Coverslips with CHO-K1 cells were placed in a recording chamber and continuously perfused at room temperature (22–24 °C) with extracellular solution using a gravity-fed perfusion system. The intracellular and extracellular solutions used for MPC were identical to those used for APC electrophysiology (see above). Extracellular solution without DMSO was used as a vehicle. Compounds were diluted from the stock solution as a series of dilutions in extracellular solution (i.e., no compensation for different concentrations of DMSO in recording solutions). Compounds were applied to the recorded cells by a pressurized, automated OctaFlow perfusion system (ALA Scientific Instruments).
Each voltage protocol was first run three times in extracellular solution, the 3rd serving as the baseline. Voltage protocols were repeated in the presence of cumulatively rising concentrations of test compound; each concentration was present for 30 s before the recording started. The signals were sampled at 5 kHz after low-pass filtering at 2 kHz.
For Gmax (rel.), N was set to –1. For ΔV50, N was set to 1.

hERG S649A = target: T2, hERG S649A (Homo sapiens, UniProt Q12809, S649A); experiment: Manual patch-clamp (MPC) on hERG S649A, transiently transfected CHO-K1 cells; assay type: cell-based
T2 construct: expressed in transfected cells; host or cells: CHO-K1 CCL-61 (ATCC), transient, co-transfected with pcDNA3-GFP
Text: (§1) The hERG wild-type and Y652A constructs were kindly provided by Dr. Nicole Schmitt, and the eGFP-pcDNA3 construct was kindly provided by Dr. Antonios Pantazis. The S624A and S649A constructs were generated in-house from the wild-type template using the QuikChange II XL Site-Directed Mutagenesis Kit (Agilent Technologies, Santa Clara, CA, USA), in accordance with the manufacturer’s instructions. Mutagenesis primers were designed using the Agilent QuikChange Primer Design Program. Briefly, PCR amplification was performed according to the recommended cycling conditions, followed by DpnI digestion for 1 h to selectively degrade the parental (methylated) DNA template. The reaction products were then transformed into XL10-Gold ultracompetent cells. All constructs were verified by whole-plasmid sequencing (Eurofins Genomics, Germany) to confirm sequence accuracy.
(§2) Manual patch-clamp (MPC) recordings were performed 24–48 h post-transfection. Patch pipettes were pulled from borosilicate glass and had resistances of 4–7 MΩ when filled with intracellular solution. Coverslips with CHO-K1 cells were placed in a recording chamber and continuously perfused at room temperature (22–24 °C) with extracellular solution using a gravity-fed perfusion system. […] Compounds were applied to the recorded cells by a pressurized, automated OctaFlow perfusion system (ALA Scientific Instruments). […]

human CB1 receptor = target: T3, human CB1 receptor (Homo sapiens, UniProt P21554); experiment: AequoScreen intracellular calcium release assay, CHO-K1 cells stably expressing CB1; assay type: cell-based; conditions: n ≥ 3 (JWH-030 n = 2)
T3 construct: host or cells: CHO-K1 stably expressing CB1, apoaequorin and Gα16

hERG Y652A = target: T4, hERG Y652A (Homo sapiens, UniProt Q12809, Y652A); experiment: Manual patch-clamp (MPC) on hERG Y652A, transiently transfected CHO-K1 cells; assay type: cell-based
T4 construct: expressed in transfected cells; host or cells: CHO-K1 CCL-61 (ATCC), transient, co-transfected with pcDNA3-GFP
Text: as §1, §2

Sequence of hERG (KV11.1) (Q12809 whole entry): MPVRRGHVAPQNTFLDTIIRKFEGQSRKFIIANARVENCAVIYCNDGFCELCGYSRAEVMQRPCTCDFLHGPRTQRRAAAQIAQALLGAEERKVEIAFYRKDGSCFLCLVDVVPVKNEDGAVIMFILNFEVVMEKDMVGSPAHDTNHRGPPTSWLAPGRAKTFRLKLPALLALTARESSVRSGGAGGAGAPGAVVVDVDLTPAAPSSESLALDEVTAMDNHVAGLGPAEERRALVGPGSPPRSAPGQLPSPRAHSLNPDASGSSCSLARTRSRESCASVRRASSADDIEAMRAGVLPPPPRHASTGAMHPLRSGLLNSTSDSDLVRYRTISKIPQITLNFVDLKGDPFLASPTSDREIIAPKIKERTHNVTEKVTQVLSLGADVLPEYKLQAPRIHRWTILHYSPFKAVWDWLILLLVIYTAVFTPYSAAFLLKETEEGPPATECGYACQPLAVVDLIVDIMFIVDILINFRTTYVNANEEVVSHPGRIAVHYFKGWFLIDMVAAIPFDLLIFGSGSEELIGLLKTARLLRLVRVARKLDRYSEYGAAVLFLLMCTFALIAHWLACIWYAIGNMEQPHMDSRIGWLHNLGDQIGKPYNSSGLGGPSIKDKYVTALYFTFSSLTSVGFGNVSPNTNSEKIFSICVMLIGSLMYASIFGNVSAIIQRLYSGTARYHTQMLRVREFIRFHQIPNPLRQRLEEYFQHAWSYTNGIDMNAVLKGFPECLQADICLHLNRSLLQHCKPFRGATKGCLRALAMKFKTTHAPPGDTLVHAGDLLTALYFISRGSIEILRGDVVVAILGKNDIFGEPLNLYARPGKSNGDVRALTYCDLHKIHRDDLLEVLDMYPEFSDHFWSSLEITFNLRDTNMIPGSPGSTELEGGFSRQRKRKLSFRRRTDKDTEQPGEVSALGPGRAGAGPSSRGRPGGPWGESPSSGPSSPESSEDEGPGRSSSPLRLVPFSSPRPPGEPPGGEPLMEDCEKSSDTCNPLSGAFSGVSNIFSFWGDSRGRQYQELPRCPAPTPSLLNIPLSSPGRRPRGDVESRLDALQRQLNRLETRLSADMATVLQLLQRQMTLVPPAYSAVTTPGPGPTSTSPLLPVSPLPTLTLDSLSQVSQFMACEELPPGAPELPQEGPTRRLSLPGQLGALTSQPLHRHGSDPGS
T3 sequence (P21554 whole entry): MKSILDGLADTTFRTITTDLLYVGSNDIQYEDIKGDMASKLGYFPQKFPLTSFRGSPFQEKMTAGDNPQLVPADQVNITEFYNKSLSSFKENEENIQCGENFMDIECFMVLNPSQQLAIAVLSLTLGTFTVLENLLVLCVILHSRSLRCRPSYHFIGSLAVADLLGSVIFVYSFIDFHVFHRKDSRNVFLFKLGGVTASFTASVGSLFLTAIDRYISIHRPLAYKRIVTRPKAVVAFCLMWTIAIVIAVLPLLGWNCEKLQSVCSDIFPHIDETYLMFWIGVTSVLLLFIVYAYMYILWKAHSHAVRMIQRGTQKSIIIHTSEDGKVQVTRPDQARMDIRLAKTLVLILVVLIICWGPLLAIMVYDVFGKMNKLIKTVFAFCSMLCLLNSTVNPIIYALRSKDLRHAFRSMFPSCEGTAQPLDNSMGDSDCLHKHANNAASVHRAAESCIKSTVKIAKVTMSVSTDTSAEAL
T4 sequence (Q12809 whole entry Y652A): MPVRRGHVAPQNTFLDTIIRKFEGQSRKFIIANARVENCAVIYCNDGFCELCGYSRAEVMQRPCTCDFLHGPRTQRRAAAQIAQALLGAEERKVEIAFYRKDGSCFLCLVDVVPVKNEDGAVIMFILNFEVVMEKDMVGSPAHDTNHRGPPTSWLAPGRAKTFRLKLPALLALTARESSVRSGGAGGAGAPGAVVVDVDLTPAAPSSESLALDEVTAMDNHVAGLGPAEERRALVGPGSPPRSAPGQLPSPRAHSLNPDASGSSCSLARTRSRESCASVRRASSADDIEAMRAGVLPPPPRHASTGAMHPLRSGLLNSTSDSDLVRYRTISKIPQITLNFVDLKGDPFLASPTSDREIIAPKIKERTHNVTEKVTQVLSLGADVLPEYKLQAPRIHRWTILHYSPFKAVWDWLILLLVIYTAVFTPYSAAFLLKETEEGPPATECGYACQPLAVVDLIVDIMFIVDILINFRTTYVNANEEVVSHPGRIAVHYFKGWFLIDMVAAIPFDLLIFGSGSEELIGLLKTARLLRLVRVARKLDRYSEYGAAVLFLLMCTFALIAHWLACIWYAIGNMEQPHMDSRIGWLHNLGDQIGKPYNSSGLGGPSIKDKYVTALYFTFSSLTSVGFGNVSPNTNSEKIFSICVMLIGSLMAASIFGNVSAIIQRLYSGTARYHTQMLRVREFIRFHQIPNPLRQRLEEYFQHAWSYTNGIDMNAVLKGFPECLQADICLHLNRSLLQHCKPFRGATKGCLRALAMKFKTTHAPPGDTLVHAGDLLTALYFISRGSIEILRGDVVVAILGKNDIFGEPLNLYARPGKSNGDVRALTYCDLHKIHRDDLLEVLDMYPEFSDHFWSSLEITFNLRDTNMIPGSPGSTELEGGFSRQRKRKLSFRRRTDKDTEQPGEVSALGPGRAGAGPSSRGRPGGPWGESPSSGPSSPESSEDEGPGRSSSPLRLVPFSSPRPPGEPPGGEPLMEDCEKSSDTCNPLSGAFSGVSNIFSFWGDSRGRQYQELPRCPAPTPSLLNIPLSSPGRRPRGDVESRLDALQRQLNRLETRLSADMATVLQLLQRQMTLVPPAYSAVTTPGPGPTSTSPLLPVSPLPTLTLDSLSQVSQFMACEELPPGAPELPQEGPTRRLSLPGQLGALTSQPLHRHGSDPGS
T2 sequence (Q12809 whole entry S649A): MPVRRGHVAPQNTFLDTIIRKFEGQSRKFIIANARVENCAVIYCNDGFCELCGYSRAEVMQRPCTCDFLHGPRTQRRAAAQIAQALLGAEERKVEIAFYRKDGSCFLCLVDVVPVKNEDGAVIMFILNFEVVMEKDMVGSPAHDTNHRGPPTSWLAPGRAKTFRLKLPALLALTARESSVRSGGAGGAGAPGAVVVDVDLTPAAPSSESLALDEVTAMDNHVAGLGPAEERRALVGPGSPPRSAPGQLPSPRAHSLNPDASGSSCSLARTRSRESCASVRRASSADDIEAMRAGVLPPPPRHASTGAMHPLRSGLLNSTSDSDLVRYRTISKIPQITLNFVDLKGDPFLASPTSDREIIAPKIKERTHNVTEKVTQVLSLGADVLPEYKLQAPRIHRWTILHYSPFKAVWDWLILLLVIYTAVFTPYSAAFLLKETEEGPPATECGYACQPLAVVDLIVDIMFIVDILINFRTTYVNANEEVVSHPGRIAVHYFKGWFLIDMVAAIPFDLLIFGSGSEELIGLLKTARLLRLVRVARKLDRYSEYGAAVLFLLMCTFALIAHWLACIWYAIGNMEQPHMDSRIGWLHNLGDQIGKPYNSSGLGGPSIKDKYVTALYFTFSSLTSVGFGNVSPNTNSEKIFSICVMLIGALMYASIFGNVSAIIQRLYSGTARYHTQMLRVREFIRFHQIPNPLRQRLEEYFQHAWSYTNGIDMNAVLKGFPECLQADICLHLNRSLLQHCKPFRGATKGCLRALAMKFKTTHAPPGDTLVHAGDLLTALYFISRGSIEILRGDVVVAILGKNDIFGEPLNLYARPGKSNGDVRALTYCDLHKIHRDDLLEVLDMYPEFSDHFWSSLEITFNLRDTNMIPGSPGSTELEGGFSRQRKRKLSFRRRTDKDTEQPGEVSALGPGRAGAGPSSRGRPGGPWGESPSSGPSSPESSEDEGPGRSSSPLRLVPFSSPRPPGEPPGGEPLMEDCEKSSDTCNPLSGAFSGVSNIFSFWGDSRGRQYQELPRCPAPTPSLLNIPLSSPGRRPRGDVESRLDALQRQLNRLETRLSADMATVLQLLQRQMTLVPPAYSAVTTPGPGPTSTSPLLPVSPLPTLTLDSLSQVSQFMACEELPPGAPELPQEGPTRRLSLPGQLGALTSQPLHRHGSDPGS
T1 sequence (Q12809 whole entry): as the sequence (Q12809 whole entry) above

COC(=O)C(NC(=O)c1nn(CCCCCF)c2ccccc12)C(C)(C)C (stereo not shown) [5F-MDMB-PINACA, methyl 2-{[1-(5-fluoropentyl)-1H-indazole-3-carbonyl]amino}-3,3-dimethylbutanoate]
IC50 (hERG (KV11.1)): 9 µM | effect on Gmax of hERG (in words) (hERG (KV11.1); APC concentration-response, 1.11 to 30 µM): one of the most prominent in reducing Gmax of hERG | hERG channel Efficacy (max reduction in Gmax) Gmin (hERG (KV11.1); best fit, 1 = no reduction of Gmax, 0 = complete reduction, APC, 22 °C): 0.00 | concentration in post-mortem cases, blood or serum ([1]; blood or serum samples): approximately 2 ng/mL | concentration in post-mortem case, heart muscle ([1]; heart muscle): 1.82 ng/mL | IC50 (hERG WT): 4 µM | IC50 (hERG S649A): 16.7 µM | EC50 (human CB1 receptor; CB1 receptor Potency EC50, normalized to median EC50 of JWH-018): 0.00899 µM | CB1 receptor Efficacy Emax (human CB1 receptor; normalized to maximum of JWH-018): 131 % JWH-018 | IC50 (hERG Y652A): 7.8 µM
